# Tests used:
# PKC epsilon = biological target: T1, PKC epsilon (Homo sapiens, UniProt Q02156); experiment: cell-free enzyme assay PKC epsilon; assay type: biochemical
# T1 sequence (Q02156 1-737): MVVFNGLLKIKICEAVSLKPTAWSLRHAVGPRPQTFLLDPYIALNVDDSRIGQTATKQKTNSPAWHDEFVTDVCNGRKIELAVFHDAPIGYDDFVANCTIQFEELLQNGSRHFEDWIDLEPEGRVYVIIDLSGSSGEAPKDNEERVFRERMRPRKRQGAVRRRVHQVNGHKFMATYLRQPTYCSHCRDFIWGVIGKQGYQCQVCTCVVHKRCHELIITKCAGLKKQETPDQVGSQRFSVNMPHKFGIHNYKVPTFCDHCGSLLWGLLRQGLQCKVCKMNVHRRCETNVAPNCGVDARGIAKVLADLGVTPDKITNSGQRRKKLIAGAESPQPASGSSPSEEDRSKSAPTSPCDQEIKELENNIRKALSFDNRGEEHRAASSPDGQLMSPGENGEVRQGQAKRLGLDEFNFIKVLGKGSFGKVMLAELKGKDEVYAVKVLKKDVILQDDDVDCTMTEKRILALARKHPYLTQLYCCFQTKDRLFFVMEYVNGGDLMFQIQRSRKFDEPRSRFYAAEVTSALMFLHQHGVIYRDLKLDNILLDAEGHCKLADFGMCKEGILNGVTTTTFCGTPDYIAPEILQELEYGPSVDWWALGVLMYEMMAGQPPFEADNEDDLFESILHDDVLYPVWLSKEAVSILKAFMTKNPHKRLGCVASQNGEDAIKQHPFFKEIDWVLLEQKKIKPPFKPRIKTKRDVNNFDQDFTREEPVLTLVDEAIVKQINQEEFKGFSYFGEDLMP
# Flt-4 = Flt-4 (Homo sapiens, UniProt P35916); experiment: cell-free enzyme assay Flt-4; assay type: biochemical
# PKC gamma = PKC gamma (Homo sapiens, UniProt P05129); experiment: cell-free enzyme assay PKC gamma; assay type: biochemical
# Flt-1 = Flt-1 (Homo sapiens, UniProt P17948); experiment: cell-free enzyme assay Flt-1; assay type: biochemical
# PKC beta = PKC beta (Homo sapiens, UniProt P05771); experiment: cell-free enzyme assay PKC beta; assay type: biochemical
# CDK-1 = CDK-1 (Homo sapiens, UniProt P06493); experiment: cell-free enzyme assay CDK-1; assay type: biochemical
# HEK/APPswe cells = experiment: MTS assay (cytotoxicity); assay type: cell-based; details: at concentrations below 1 microM
# Experimental: To determine cytotoxicity, cells are tested by the MTS colorimetric kit performed essentially according to the manufacturer's specifications (Promega, #G5430X). After collecting the conditioned medium for the sandwich ELISA, the rest of the conditioned medium is removed completely and replaced with 100 μl/well culture medium containing one fifth of MTS solution prepared as recommended in the kit. After 3 hours incubation at 37° C., absorbance is read at an OD of 490 nm with a reference wavelength set to 630 nm. Values are given as % metabolic rate (n=6). The 0% value is calculated from wells which had no cells, 100% from wells with an untreated cell layer
# PKC theta = PKC theta (Homo sapiens, UniProt Q04759); experiment: cell-free enzyme assay PKC theta; assay type: biochemical
# Flt-2 = Flt-2 (Homo sapiens, UniProt P11362); experiment: cell-free enzyme assay Flt-2; assay type: biochemical
# [1] = system: Aβ secretion in HEK/APPswe cells; experiment: Aβ secretion in HEK/APPswe cell culture medium (sandwich ELISA); assay type: cell-based; details: HEK/APPswe cell cultures, 24 hours after compound addition
# Experimental: HEK/APPswe cells are plated in microtiter plates precoated with 10 μg/ml poly-D-lysine at 12′000 cells/well in 100 μl/well DMEM medium supplemented with 10% FCS, 0.25 mg/ml G418 sulfate, 1% penicillin streptomycin. The following day, supernatant is replaced with 90 μl/well of fresh medium and 10 μl/well of compound diluted in culture medium are added. Two types of control wells are used: cell culture medium without cells plus 10 μl/well of all compound dilutions (background signals) and cell culture medium from untreated cells (positive control). 24 hours later after compound addition, conditioned medium is collected and Aβ levels determined by a specific sandwich ELISA.
# For the sandwich ELISA, the maxisorp microtiterplates are coated overnight at 4° C. with 100 μl/well of the monoclonal antibody 25H 10 diluted 1:1000 in PB for Aβ40 detection or monoclonal antibody B10E7 diluted 1:2750 for detection of Aβ42. […] After 1 hour incubation at room temperature wells are washed as described above and alkaline phosphatase activity is determined by adding 100 μl/well of diethanolamine buffer, pH 9.8 (100 mM diethanolamine, 1 mM MgCl2, pH adjusted to 9.8 with 2 M HCl) containing the chemiluminescent CSPD substrate (25 mM stock solution diluted 1:416) and the enhancer Emerald II (diluted 1:10). […] Samples are measured in triplicate. […]
# PKC alpha = PKC alpha (Homo sapiens, UniProt P17252); experiment: cell-free enzyme assay PKC alpha; assay type: biochemical
# KDR = KDR (Homo sapiens, UniProt P35968); experiment: cell-free enzyme assay KDR; assay type: biochemical
# Flt-3 = biological target: T2, Flt-3 (Homo sapiens, UniProt P36888); experiment: cell-free enzyme assay Flt-3; assay type: biochemical
# T2 sequence (P36888 27-993): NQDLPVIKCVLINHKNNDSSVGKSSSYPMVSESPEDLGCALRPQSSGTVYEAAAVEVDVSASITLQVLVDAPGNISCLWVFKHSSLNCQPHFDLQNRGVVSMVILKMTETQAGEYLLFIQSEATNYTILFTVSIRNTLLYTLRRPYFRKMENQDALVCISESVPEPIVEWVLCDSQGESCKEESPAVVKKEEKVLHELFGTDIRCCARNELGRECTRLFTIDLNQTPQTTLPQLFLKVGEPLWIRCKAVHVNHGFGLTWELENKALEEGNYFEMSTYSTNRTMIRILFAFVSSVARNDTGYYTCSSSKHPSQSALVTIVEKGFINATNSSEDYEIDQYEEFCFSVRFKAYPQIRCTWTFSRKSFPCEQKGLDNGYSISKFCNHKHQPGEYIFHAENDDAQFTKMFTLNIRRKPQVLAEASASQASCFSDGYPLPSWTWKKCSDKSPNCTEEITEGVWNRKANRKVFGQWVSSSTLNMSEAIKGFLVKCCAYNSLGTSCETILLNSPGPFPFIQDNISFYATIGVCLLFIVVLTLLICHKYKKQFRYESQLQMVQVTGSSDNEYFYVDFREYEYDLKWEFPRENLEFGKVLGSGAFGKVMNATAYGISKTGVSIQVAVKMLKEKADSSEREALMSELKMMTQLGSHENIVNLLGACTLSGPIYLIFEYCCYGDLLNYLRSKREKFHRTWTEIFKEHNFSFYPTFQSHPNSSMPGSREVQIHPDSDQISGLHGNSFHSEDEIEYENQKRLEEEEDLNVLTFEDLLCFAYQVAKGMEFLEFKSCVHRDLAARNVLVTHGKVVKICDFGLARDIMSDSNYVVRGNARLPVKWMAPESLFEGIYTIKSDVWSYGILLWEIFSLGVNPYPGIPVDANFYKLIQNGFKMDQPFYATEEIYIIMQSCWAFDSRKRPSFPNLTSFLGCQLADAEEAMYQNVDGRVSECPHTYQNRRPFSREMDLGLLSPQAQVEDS
# Sequence of PKC theta (Q04759 whole entry): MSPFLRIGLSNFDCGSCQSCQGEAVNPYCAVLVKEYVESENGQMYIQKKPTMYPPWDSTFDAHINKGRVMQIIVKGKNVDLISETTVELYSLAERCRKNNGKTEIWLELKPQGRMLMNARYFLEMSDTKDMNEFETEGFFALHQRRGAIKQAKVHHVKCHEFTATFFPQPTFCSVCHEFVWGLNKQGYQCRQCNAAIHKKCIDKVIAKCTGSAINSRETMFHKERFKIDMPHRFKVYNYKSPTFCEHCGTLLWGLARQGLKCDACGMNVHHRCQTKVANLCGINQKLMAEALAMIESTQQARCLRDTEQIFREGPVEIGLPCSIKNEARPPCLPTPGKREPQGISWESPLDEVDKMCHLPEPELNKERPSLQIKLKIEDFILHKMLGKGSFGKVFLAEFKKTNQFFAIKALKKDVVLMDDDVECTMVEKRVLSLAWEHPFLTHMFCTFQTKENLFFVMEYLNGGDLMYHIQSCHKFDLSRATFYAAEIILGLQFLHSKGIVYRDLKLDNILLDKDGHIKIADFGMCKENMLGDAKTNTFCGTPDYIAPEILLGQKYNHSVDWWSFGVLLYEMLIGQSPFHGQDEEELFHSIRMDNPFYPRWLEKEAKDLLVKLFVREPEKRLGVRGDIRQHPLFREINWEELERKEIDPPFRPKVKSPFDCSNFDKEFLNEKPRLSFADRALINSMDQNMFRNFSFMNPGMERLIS
# Sequence of KDR (P35968 20-1356, species assumed): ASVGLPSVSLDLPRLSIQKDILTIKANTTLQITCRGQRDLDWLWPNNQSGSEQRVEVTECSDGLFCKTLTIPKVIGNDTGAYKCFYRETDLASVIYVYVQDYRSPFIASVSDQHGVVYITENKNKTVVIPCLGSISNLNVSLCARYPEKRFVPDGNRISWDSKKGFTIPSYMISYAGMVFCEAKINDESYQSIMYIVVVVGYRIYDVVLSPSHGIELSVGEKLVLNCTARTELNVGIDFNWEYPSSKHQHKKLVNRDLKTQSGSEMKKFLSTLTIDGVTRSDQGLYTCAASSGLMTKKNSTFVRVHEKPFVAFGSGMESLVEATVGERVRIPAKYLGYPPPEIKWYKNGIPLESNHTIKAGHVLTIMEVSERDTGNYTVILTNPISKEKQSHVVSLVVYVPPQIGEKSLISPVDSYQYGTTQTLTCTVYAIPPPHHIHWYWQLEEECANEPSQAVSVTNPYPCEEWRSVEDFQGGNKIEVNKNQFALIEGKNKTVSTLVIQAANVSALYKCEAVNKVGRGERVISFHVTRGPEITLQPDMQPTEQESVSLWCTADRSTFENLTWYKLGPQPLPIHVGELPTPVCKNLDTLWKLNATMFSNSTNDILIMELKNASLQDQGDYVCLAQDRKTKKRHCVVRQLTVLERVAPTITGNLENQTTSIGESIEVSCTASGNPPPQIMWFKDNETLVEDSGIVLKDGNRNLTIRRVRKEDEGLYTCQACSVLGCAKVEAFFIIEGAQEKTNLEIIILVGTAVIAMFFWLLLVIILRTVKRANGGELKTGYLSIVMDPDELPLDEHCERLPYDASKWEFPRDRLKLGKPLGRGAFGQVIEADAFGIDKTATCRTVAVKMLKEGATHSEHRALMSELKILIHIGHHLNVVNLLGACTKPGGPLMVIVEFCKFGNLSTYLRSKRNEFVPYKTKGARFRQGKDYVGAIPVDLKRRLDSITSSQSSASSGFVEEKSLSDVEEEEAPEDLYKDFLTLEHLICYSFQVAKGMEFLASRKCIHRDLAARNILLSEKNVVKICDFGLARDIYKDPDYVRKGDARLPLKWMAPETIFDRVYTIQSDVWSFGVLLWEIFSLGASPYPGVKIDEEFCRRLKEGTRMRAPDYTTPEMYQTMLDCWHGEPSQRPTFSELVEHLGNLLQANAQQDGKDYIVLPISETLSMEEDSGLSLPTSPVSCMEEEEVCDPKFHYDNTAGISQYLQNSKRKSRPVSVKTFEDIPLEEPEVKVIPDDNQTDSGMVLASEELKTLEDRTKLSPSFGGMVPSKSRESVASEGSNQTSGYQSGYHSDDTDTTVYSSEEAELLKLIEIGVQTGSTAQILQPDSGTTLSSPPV
# Sequence of PKC beta (P05771 whole entry, species assumed): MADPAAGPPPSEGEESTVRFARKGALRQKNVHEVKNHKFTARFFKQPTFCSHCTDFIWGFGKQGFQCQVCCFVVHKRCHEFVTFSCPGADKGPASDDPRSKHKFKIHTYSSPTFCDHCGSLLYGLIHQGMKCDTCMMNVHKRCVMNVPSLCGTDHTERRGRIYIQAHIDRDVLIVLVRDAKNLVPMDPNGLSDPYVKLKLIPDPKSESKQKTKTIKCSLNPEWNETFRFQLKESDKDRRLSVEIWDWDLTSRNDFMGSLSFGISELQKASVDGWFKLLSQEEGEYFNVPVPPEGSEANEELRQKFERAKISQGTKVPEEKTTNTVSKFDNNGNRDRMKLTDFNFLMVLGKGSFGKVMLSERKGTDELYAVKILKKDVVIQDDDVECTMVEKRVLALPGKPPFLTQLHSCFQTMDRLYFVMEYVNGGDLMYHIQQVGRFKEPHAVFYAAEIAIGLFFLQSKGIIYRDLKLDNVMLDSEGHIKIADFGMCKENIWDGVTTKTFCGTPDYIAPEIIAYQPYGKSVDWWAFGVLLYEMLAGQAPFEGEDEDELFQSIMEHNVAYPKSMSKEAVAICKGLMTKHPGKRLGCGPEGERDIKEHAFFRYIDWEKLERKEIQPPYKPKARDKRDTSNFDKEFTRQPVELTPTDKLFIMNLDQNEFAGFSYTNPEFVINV
# Sequence of Flt-2 (P11362 22-822, species assumed): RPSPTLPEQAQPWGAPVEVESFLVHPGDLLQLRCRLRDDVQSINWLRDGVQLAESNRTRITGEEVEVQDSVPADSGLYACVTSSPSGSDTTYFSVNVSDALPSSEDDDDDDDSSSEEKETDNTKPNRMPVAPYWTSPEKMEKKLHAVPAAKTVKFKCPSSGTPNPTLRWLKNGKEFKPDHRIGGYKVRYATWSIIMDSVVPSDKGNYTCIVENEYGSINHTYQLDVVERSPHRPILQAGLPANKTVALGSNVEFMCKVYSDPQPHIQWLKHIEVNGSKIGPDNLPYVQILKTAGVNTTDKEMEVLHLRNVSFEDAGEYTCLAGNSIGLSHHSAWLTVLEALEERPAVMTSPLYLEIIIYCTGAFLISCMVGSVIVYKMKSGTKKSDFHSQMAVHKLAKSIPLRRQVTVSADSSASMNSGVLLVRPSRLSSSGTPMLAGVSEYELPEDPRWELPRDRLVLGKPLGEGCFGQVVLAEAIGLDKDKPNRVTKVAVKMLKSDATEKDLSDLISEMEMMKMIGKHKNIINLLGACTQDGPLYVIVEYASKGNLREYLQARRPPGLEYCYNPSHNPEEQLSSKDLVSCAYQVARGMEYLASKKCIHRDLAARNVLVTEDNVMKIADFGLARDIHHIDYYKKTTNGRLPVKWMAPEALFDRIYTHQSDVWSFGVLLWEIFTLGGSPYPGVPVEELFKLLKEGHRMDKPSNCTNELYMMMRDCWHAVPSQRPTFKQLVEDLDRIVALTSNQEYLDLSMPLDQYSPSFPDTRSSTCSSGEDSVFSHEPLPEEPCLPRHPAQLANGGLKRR
compound,measurement,setting,value
"CN1CCN(c2cc(C3=C(c4c[nH]c5ccccc45)C(=O)NC3=O)c(Cl)c(C(F)(F)F)c2)CC1 [Example 2, 3-[2-Chloro-5-(4-methyl-piperazin-1-yl)-3-trifluoromethyl-phenyl]-4-(1H-indol-3-yl)-pyrrole-2,5-dione]","activity in cell-free enzyme assay, PKC epsilon",PKC epsilon,514 nM
same,"activity in cell-free enzyme assay, Flt-4",Flt-4,<10 µM
same,"activity in cell-free enzyme assay, PKC gamma",PKC gamma,<500 nM
same,"activity in cell-free enzyme assay, Flt-1",Flt-1,<10 µM
same,"activity in cell-free enzyme assay, PKC beta",PKC beta,30 nM
same,"activity in cell-free enzyme assay, CDK-1",CDK-1,<10 µM
same,effect on cellular viability,HEK/APPswe cells,without having any effect on cellular viability
same,"activity in cell-free enzyme assay, PKC theta",PKC theta,186 nM
same,"activity in cell-free enzyme assay, Flt-2",Flt-2,<10 µM
same,concentration giving a clear reduction of Aβ secretion in the medium,[1],below 1 microM
same,"activity in cell-free enzyme assay, PKC alpha",PKC alpha,21 nM
same,"activity in cell-free enzyme assay, KDR",KDR,<10 µM
same,"activity in cell-free enzyme assay, Flt-3",Flt-3,<10 µM
